Earlier results in patent publication US20020086070A1, “Anti-inflammatory and connective tissue repair formulations” (priority 2000, published 2002).

Key:
COX-2 over COX-1 = details: specificity for COX-2 over COX-1
skin tumor formation = details: following initiation with a chemical challenge
[1] = molecular target: cyclooxygenase-2 induction; details: TNFalpha-dependent induction; read-out: IC(50) for suppression of TNFalpha-dependent cyclooxygenase-2 induction
[2] = tested on: arachidonic acid-induced inflammatory ear edema; details: mice

Compound	COX-2 specificity (COX-2 over COX-1)	inhibition of skin tumor formation (skin tumor formation)	IC50 [1] [nM]	inhibition of arachidonic acid-induced inflammatory ear edema [2]
CC(=O)Oc1ccccc1C(=O)O [aspirin]	0.6	–	–	–
CC(C)=CCC1=C(O)[C@](O)(CC=C(C)C)C(=O)C(C(=O)CC(C)C)=C1O [humulon]	–	inhibited skin tumor formation	~30	inhibited
